Measurements published in patent US11440909B2, “10H-phenothiazine ferroptosis inhibitor as well as the preparative method and the use thereof” (CHENGDU HENGHAO INVESTMENT CO. LIMITED, priority 2018, dated 2022).

What follows are compounds tested on fibrosarcoma cell line HT1080 (assay: Ferroptosis screening model (MTT method), Erastin-induced ferroptosis). Settings: HT1080, ferroptosis inducer Erastin, 72 h, average of three tests, read-out: EC50.
Format: cell-based, human
Procedure: The screening model for ferroptosis mainly used MTT method. First, the fibrosarcoma cell line HT1080 was cultured in a dish, and the cells in the logarithmic growth phase were inoculated into a 96-well plate in a certain number (3000-10000 cells/well), 100 μL per well, and then the plate was put in an 5% CO2 incubator at 37° C., to allow the cells to adhere. After 24 h, 100 μL compound solution at a certain concentration prepared in the designated medium and ferroptosis inducer Erastin (with a final concentration of […]) were added, setting 3 replicate wells for each compound to ensure the accuracy of the results, and a negative control group, a positive control group (Fer-15 μM), a blank control group and a solvent control group were included. After addition of drugs, the plate was placed in an incubator and cultivated for 72 h. On the day of MTT experiment, MTT test solution (5 mg/mL MTT solution dissolved in physiological saline, and stored in the dark at 4° C.) was pre-prepared and 20 μL MTT solution was added to each well, then the plate was put in an incubator and continued to incubate for 2-4 h. After that, 50 μL of 20% SDS solution (dissolved in MiliiQ water, added with 1% concentrated hydrochloric acid) was added to each well and kept in an incubator overnight. On the next day, the absorbance at 570 nm was measured with a microplate reader, to calculate the inhibition rate of drugs on ferroptosis. Generally, the absorbance value of the control group should be in the range of 0.8-1.2 as a normal value.
GraphPadPrism5 software was used to fit the change curve of inhibition rate and calculate the EC50.
Work on `CC(c1ccccc1)c1ccc2c(c1)Nc1ccccc1S2` (stereo not drawn) [Compound A1, 2-(1-phenylethyl)-10H-phenothiazine] yielded an EC50 of 3 nM. `CC(C)Oc1ccc(C(C)c2ccc3c(c2)Nc2ccccc2S3)cc1` (stereo not drawn) [Compound A33, 2-(1-(4-isopropoxylphenyl)ethyl)-10H-phenothiazine] gave an EC50 of 17 nM. Work on `CC(C)Oc1ccc(C(C)c2ccc3c(c2)Nc2ccccc2S3)cc1` (stereo not drawn) [Compound A34, 2-(1-(4-isopropoxylphenyl)ethyl)-10H-phenothiazine] yielded an EC50 of 65 nM.

Same assay, conditions: Homo sapiens, HT-1080, 72 h, HT1080, ferroptosis inducer Erastin, 72 h, average of three tests, read-out: EC50
Compound `CC(c1cccc(F)c1)c1ccc2c(c1)Nc1ccccc1S2` (stereo not drawn) [Compound A2, 2-(1-(3-fluorophenyl)ethyl)-10H-phenothiazine] has an EC50 of 6 nM. With `CC(c1cccc(Cl)c1)c1ccc2c(c1)Nc1ccccc1S2` (stereo not drawn) [Compound A3, 2-(1-(3-chlorophenyl)ethyl)-10H-phenothiazine] the EC50 was 5 nM. In the case of `CC(c1cccc(I)c1)c1ccc2c(c1)Nc1ccccc1S2` (stereo not drawn) [Compound A4, 2-(1-(3-iodophenyl)ethyl)-10H-phenothiazine], the EC50 is reported as 5 nM. In the case of `CC(c1cccc(C#N)c1)c1ccc2c(c1)Nc1ccccc1S2` (stereo not drawn) [Compound A5, 3-(1-(10H-phenothiazin-2-yl)ethyl)benzonitrile], the EC50 is reported as 15 nM. With `CC(c1cccc(O)c1)c1ccc2c(c1)Nc1ccccc1S2` (stereo not drawn) [Compound A6, 3-(1-(10H-phenothiazin-2-yl)ethyl)phenol] the EC50 was 5 nM. For `CC(c1cccc(N)c1)c1ccc2c(c1)Nc1ccccc1S2` (stereo not drawn) [Compound A7, 3-(1-(10H-phenothiazin-2-yl)ethyl)phenylamine], the EC50 was 1 nM. `Cc1cccc(C(C)c2ccc3c(c2)Nc2ccccc2S3)c1` (stereo not drawn) [Compound A8, 2-(1-(m-methylphenyl)ethyl)-10H-phenothiazine] was tested, and the EC50 was 5 nM. `CCc1cccc(C(C)c2ccc3c(c2)Nc2ccccc2S3)c1` (stereo not drawn) [Compound A9, 2-(1-(3-ethylphenyl)ethyl)-10H-phenothiazine] was tested, and the EC50 was 18 nM. `CC(C)c1cccc(C(C)c2ccc3c(c2)Nc2ccccc2S3)c1` (stereo not drawn) [Compound A10, 2-(1-(3-isopropylphenyl)ethyl)-10H-phenothiazine] showed an EC50 of 12 nM. `CCOc1cccc(C(C)c2ccc3c(c2)Nc2ccccc2S3)c1` (stereo not drawn) [Compound A11, 2-(1-(3-ethoxylphenyl)ethyl)-10H-phenothiazine] was tested, and the EC50 was 19 nM. Compound `CC(C)Oc1cccc(C(C)c2ccc3c(c2)Nc2ccccc2S3)c1` (stereo not drawn) [Compound A12, 2-(1-(3-isopropoxylphenyl)ethyl)-10H-phenothiazine] has an EC50 of 15 nM. `CC(c1cccc(OCc2ccccc2)c1)c1ccc2c(c1)Nc1ccccc1S2` (stereo not drawn) [Compound A13, 2-(1-(3-(benzyloxyl)phenyl)ethyl)-10H-phenothiazine] was tested, and the EC50 was 25 nM. `CCOC(=O)c1cccc(C(C)c2ccc3c(c2)Nc2ccccc2S3)c1` (stereo not drawn) [Compound A14, 3-(1-(10H-phenothiazin-2-yl)ethyl)benzoic acid ethyl ester] showed an EC50 of 5 nM. `CC(c1cccc(C(=O)OC(C)(C)C)c1)c1ccc2c(c1)Nc1ccccc1S2` (stereo not drawn) [Compound A15, 3-(1-(10H-phenothiazin-2-yl)ethyl)benzoic acid t-butyl ester] was tested, and the EC50 was 17 nM. `CC(c1cccc(NC(=O)OC(C)(C)C)c1)c1ccc2c(c1)Nc1ccccc1S2` (stereo not drawn) [Compound A16, (3-(1-(10H-phenothiazin-2-yl)ethyl)phenyl)carbamic acid t-butyl ester] was tested, and the EC50 was 49 nM. Work on `CC(c1cccc(OC(F)(F)F)c1)c1ccc2c(c1)Nc1ccccc1S2` (stereo not drawn) [Compound A17, 2-(1-(3-(trifluoromethoxyl)phenyl)ethyl)-10H-phenothiazine] yielded an EC50 of 13 nM. For `CC(c1cccc(-c2ccccc2)c1)c1ccc2c(c1)Nc1ccccc1S2` (stereo not drawn) [Compound A18, 2-(1-([1,1′-diphenyl]-3-yl)ethyl)-10H-phenothiazine], the EC50 was 70 nM. Compound `CC(c1ccc(F)cc1)c1ccc2c(c1)Nc1ccccc1S2` (stereo not drawn) [Compound A19, 2-(1-(4-fluorophenyl)ethyl)-10H-phenothiazine] has an EC50 of 6 nM. `CC(c1ccc(Cl)cc1)c1ccc2c(c1)Nc1ccccc1S2` (stereo not drawn) [Compound A20, 2-(1-(4-chlorophenyl)ethyl)-10H-phenothiazine] was tested, and the EC50 was 15 nM. In the case of `CC(c1ccc(C(F)(F)F)cc1)c1ccc2c(c1)Nc1ccccc1S2` (stereo not drawn) [Compound A21, 2-(1-(4-(trifluoromethyl)phenyl)ethyl)-10H-phenothiazine], the EC50 is reported as 6 nM. Work on `CC(c1ccc(C#N)cc1)c1ccc2c(c1)Nc1ccccc1S2` (stereo not drawn) [Compound A22, 4-(1-(10H-phenothiazin-2-yl)ethyl)benzonitrile] yielded an EC50 of 6 nM. With `CC(c1ccc(OC(F)(F)F)cc1)c1ccc2c(c1)Nc1ccccc1S2` (stereo not drawn) [Compound A23, 2-(1-(4-(trifluoromethoxyl)phenyl)ethyl)-10H-phenothiazine] the EC50 was 20 nM. `CCc1ccc(C(C)c2ccc3c(c2)Nc2ccccc2S3)cc1` (stereo not drawn) [Compound A24, 2-(1-(4-ethylphenyl)ethyl)-10H-phenothiazine] gave an EC50 of 20 nM. With `CCCc1ccc(C(C)c2ccc3c(c2)Nc2ccccc2S3)cc1` (stereo not drawn) [Compound A25, 2-(1-(4-propylphenyl)ethyl)-10H-phenothiazine] the EC50 was 21 nM. In the case of `CC(C)c1ccc(C(C)c2ccc3c(c2)Nc2ccccc2S3)cc1` (stereo not drawn) [Compound A26, 2-(1-(4-isopropylphenyl)ethyl)-10H-phenothiazine], the EC50 is reported as 6 nM. Compound `CCCCc1ccc(C(C)c2ccc3c(c2)Nc2ccccc2S3)cc1` (stereo not drawn) [Compound A27, 2-(1-(4-butylphenyl)ethyl)-10H-phenothiazine] has an EC50 of 64 nM. For `CC(C)Cc1ccc(C(C)c2ccc3c(c2)Nc2ccccc2S3)cc1` (stereo not drawn) [Compound A28, 2-(1-(4-isobutylphenyl)ethyl)-10H-phenothiazine], the EC50 was 8 nM. Compound `CC(c1ccc(C(C)(C)C)cc1)c1ccc2c(c1)Nc1ccccc1S2` (stereo not drawn) [Compound A29, 2-(1-(4-t-butylphenyl)ethyl)-10H-phenothiazine] has an EC50 of 7 nM. `COc1ccc(C(C)c2ccc3c(c2)Nc2ccccc2S3)cc1` (stereo not drawn) [Compound A30, 2-(1-(4-methoxylphenyl)ethyl)-10H-phenothiazine] was tested, and the EC50 was 6 nM. Work on `CCOc1ccc(C(C)c2ccc3c(c2)Nc2ccccc2S3)cc1` (stereo not drawn) [Compound A31, 2-(1-(4-ethoxylphenyl)ethyl)-10H-phenothiazine] yielded an EC50 of 17 nM. For `CCCOc1ccc(C(C)c2ccc3c(c2)Nc2ccccc2S3)cc1` (stereo not drawn) [Compound A32, 2-(1-(4-propoxylphenyl)ethyl)-10H-phenothiazine], the EC50 was 62 nM. Work on `CC(c1ccc(OCc2ccccc2)cc1)c1ccc2c(c1)Nc1ccccc1S2` (stereo not drawn) [Compound A35, 2-(1-(4-(benzyloxyl)phenyl)ethyl)-10H-phenothiazine] yielded an EC50 of 14 nM. With `COC(=O)c1ccc(C(C)c2ccc3c(c2)Nc2ccccc2S3)cc1` (stereo not drawn) [Compound A36, 4-(1-(10H-phenothiazin-2-yl)ethyl)benzoic acid methyl ester] the EC50 was 13 nM. `CC(c1ccc(N(c2ccccc2)c2ccccc2)cc1)c1ccc2c(c1)Nc1ccccc1S2` (stereo not drawn) [Compound A37, 4-(1-(10H-phenothiazin-2-yl)ethyl)-N,N-diphenylphenylamine] gave an EC50 of 323 nM. Compound `CC(c1ccc(F)c(F)c1)c1ccc2c(c1)Nc1ccccc1S2` (stereo not drawn) [Compound A39, 2-(1-(3,4-difluorophenyl)ethyl)-10H-phenothiazine] has an EC50 of 17 nM. With `CC(c1ccc(F)c(Cl)c1)c1ccc2c(c1)Nc1ccccc1S2` (stereo not drawn) [Compound A40, 2-(1-(3-chloro-4-fluorophenyl)ethyl)-10H-phenothiazine] the EC50 was 5 nM. In the case of `CC(c1ccc2c(c1)Nc1ccccc1S2)c1ccc(F)c(C(F)(F)F)c1` (stereo not drawn) [Compound A41, 2-(1-(4-fluoro-3-(trifluoromethyl)phenyl)ethyl)-10H-phenothiazine], the EC50 is reported as 18 nM. With `CC(c1ccc(Cl)c(Cl)c1)c1ccc2c(c1)Nc1ccccc1S2` (stereo not drawn) [Compound A42, 2-(1-(3,4-dichlorophenyl)ethyl)-10H-phenothiazine] the EC50 was 16 nM. In the case of `CC(c1ccc2c(c1)Nc1ccccc1S2)c1ccc(Cl)c(C(F)(F)F)c1` (stereo not drawn) [Compound A43, 2-(1-(4-chloro-3-(trifluoromethyl)phenyl)ethyl)-10H-phenothiazine], the EC50 is reported as 17 nM. `CC(c1ccc(Cl)c(F)c1)c1ccc2c(c1)Nc1ccccc1S2` (stereo not drawn) [Compound A44, 2-(1-(4-chloro-3-fluorophenyl)ethyl)-10H-phenothiazine] was tested, and the EC50 was 19 nM. `CC(c1ccc(C(F)(F)F)c(Cl)c1)c1ccc2c(c1)Nc1ccccc1S2` (stereo not drawn) [Compound A45, 2-(1-(3-chloro-4-(trifluoromethyl)phenyl)ethyl)-10H-phenothiazine] showed an EC50 of 22 nM. With `Cc1ccc(C(C)c2ccc3c(c2)Nc2ccccc2S3)cc1C` (stereo not drawn) [Compound A46, 2-(1-(3,4-dimethylphenyl)ethyl)-10H-phenothiazine] the EC50 was 21 nM. Work on `COc1ccc(C(C)c2ccc3c(c2)Nc2ccccc2S3)cc1OC` (stereo not drawn) [Compound A47, 2-(1-(3,4-dimethoxylphenyl)ethyl)-10H-phenothiazine] yielded an EC50 of 7 nM. In the case of `COc1cc(C(C)c2ccc3c(c2)Nc2ccccc2S3)ccc1C` (stereo not drawn) [Compound A48, 2-(1-(3-methoxyl-4-methylphenyl)ethyl)-10H-phenothiazine], the EC50 is reported as 22 nM. `COc1ccc(C(C)c2ccc3c(c2)Nc2ccccc2S3)cc1C` (stereo not drawn) [Compound A49, 2-(1-(4-methoxyl-3-methylphenyl)ethyl)-10H-phenothiazine] showed an EC50 of 19 nM.
